Experimental data as given in patent EP4467141A1, “PYRAZOLO-QUINOLINES AS SELECTIVE INHIBITORS OF GENOTOXIC STRESS-INDUCED IKK/NF- KB PATHWAYS FOR CANCER THERAPY” (Max-Delbrück-Centrum für Molekulare Medizin in der …, priority 2023, dated 2024).
Where two headings read alike, the source gives them in different places.

Legend:
Test in all cases: Kinase panel study
Assay type in all cases: biochemical
Conditions in all cases: for inhibition at 1 µM: 1000nM
[1] = biological target: T1, CSF1R (FMS) (Homo sapiens, UniProt P07333)
T1 construct: purchased Thermo Fisher Scientific
Procedure: (§1) The Kinase panel study was entirely provided by Thermo Fisher Scientific using the two lead compounds MW01 and MW05 as well as their derivatives (MW01-E06, MW01-E10, MW01-E14, MW01-E18, MW05-E2, MW05-E3, MW05-E9 and MW05-E10. The experiment was performed using the ZLyte or Adapta protocol according to manufacturer standard operating procedures.
(§2) Based on their similar effects in our screen and molecular analysis, MW01 and MW05 were used in comparative target deconvolution studies seeking common targets despite their distinct structures. To eliminate previously identified kinases regulating NF-κB activity, such as IKK, as possible targets of MW01 and MW05, an in vitro kinase inhibition assay was performed. […] We next investigated if any of the shared kinase targets of MW01 and MW05 play a role in genotoxic stress-induced NF-κB activity and established several criteria to narrow down pathway-relevant targets. Considering the similar NF-κB inhibition phenotypes of both compounds, we hypothesized first that the target should be shared by both lead compounds. Second, based on the CaCo2 recovery values and experimental treatment concentration of 10 µM), the putative target kinase should have a low IC50 of, at most, 2000 nM for both lead compounds in the in vitro kinase panel (Fig. 2A). Based on these criteria alone, we arrived at a relatively short list of potential targets for further analysis, leaving only PIK3CG, PIK3C2G, and CLK2 (Fig. 2B). IC50 values for PIK3C2G by both lead compounds agreed best with these criteria, but RNA expression analysis indicates high tissue specificity as well as lack of expression of this kinase in our U2-OS model cell line, which we then eliminated from further analysis (Uhlén et al., 2015). […] Table 6: Percentage of inhibition of the indicated kinases by MW01 or MW05 at either 10 µM or 1 µM. n.d. = not determined.

[2] = biological target: T2, FLT3 (Homo sapiens, UniProt P36888)
T2 construct: purchased Thermo Fisher Scientific
T2 sequence (P36888 27-993): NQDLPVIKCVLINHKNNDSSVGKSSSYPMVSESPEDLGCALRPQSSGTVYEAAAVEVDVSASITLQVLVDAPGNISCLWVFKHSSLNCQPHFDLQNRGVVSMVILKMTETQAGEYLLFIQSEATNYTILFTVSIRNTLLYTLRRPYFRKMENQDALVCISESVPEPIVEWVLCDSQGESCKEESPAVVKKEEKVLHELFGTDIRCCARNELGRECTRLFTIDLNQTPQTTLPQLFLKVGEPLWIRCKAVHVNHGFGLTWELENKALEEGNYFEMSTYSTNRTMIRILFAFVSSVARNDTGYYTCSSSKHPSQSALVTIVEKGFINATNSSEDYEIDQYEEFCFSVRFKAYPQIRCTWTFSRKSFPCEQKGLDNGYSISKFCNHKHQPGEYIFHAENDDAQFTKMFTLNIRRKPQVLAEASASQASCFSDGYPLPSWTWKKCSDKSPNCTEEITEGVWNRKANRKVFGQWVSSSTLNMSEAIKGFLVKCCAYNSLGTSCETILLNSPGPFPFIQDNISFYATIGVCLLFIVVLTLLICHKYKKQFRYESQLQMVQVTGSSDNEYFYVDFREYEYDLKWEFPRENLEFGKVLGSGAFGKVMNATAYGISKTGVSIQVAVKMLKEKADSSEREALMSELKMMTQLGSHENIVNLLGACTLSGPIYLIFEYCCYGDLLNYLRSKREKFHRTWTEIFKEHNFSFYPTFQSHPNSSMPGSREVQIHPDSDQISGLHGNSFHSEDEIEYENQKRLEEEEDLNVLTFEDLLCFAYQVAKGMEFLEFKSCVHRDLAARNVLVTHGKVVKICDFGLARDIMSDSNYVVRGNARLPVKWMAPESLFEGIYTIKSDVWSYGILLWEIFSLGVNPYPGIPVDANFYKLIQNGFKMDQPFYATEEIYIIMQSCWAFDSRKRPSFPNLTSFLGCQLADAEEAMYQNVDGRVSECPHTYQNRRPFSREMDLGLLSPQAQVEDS
Procedure: as §1, §2

[3] = biological target: T3, GSG2 (Haspin) (Homo sapiens, UniProt Q8TF76)
T3 construct: purchased Thermo Fisher Scientific
T3 sequence (Q8TF76 1-798): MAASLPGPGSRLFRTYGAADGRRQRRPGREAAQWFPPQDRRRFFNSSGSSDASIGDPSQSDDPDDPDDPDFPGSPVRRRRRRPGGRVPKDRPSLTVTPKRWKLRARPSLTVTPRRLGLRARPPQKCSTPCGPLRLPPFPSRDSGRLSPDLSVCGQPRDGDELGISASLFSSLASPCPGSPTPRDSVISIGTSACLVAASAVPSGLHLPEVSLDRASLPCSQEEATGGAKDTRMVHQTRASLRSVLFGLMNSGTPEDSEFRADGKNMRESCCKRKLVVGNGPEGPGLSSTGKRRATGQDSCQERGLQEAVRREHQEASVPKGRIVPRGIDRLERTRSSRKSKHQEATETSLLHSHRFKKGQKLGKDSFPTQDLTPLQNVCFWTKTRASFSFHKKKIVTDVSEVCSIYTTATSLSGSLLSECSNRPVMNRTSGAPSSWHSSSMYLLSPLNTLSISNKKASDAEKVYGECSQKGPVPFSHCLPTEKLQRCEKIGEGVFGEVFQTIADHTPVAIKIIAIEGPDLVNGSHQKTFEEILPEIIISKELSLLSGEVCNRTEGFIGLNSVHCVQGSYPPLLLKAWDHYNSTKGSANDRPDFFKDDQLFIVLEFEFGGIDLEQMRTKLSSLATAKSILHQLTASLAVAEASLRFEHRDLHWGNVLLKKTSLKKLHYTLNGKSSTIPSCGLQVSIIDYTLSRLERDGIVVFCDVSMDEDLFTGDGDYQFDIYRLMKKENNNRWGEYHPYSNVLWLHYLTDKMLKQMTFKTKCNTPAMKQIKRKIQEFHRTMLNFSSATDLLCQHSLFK
Procedure: as §1, §2

[4] = biological target: T4, MINK1 (Homo sapiens, UniProt Q8N4C8)
T4 construct: purchased Thermo Fisher Scientific
Procedure: as §1, §2

[5] = biological target: T5, PI4K2B (PI4K2 beta) (Homo sapiens, UniProt Q8TCG2)
T5 construct: purchased Thermo Fisher Scientific
Procedure: as §1, §2

[6] = biological target: T6, PIK3CB/PIK3R1 (p110 beta/p85 alpha) (Homo sapiens, UniProt P42338)
T6 construct: purchased Thermo Fisher Scientific
Procedure: as §1, §2

[7] = biological target: T7, PIK3CD/PIK3R1 (p11 0 delta/p85 alpha) (Homo sapiens, UniProt O00329)
T7 construct: purchased Thermo Fisher Scientific
Procedure: as §1, §2

[8] = biological target: T8, PIP5K1A (Homo sapiens, UniProt Q99755)
T8 construct: purchased Thermo Fisher Scientific
Procedure: as §1, §2

[9] = read-out: Percentage of inhibition
[10] = 10000nM, read-out: Percentage of inhibition
[11] = CSF1R (FMS), compound at 10µM, read-out: % of Inhibition
[12] = FLT3, compound at 10µM, read-out: % of Inhibition
[13] = GSG2 (Haspin), compound at 10µM, read-out: % of Inhibition
[14] = MINK1, compound at 10µM, read-out: % of Inhibition
[15] = PI4K2B (PI4K2 beta), compound at 10µM, read-out: % of Inhibition
[16] = PIK3CB/PIK3R1, compound at 10µM, read-out: % of Inhibition
[17] = PIK3CD/PIK3R1, compound at 10µM, read-out: % of Inhibition
[18] = PIP5K1A, compound at 10µM, read-out: % of Inhibition

T6 sequence (P42338 whole entry): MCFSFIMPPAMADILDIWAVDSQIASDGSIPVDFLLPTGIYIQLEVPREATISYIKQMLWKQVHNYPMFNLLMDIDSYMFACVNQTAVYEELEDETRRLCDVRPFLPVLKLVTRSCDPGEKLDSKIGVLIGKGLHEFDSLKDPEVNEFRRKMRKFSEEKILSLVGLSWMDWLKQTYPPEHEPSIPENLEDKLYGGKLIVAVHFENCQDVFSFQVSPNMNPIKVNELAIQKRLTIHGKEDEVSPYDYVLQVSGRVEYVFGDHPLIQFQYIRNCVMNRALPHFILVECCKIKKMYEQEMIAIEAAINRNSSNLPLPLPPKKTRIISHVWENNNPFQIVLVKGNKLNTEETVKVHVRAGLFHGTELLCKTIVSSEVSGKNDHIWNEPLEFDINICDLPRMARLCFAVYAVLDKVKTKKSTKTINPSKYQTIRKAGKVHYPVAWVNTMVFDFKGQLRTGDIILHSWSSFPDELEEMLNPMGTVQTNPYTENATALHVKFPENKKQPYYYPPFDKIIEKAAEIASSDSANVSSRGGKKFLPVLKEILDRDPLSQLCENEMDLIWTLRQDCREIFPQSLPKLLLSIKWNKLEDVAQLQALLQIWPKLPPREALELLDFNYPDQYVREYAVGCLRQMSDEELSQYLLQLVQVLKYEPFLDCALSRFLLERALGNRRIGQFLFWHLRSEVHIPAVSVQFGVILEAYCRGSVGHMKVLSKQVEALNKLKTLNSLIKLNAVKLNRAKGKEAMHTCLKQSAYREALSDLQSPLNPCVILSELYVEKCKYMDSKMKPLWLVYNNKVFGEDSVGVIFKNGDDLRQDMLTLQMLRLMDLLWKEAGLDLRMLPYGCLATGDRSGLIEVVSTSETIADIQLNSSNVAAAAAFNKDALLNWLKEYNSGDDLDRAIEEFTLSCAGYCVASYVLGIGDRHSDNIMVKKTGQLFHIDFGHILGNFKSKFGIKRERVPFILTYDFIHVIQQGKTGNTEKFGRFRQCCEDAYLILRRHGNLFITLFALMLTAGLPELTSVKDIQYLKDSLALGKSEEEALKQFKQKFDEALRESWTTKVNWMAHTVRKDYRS
T6 sequence (P27986 whole entry partner): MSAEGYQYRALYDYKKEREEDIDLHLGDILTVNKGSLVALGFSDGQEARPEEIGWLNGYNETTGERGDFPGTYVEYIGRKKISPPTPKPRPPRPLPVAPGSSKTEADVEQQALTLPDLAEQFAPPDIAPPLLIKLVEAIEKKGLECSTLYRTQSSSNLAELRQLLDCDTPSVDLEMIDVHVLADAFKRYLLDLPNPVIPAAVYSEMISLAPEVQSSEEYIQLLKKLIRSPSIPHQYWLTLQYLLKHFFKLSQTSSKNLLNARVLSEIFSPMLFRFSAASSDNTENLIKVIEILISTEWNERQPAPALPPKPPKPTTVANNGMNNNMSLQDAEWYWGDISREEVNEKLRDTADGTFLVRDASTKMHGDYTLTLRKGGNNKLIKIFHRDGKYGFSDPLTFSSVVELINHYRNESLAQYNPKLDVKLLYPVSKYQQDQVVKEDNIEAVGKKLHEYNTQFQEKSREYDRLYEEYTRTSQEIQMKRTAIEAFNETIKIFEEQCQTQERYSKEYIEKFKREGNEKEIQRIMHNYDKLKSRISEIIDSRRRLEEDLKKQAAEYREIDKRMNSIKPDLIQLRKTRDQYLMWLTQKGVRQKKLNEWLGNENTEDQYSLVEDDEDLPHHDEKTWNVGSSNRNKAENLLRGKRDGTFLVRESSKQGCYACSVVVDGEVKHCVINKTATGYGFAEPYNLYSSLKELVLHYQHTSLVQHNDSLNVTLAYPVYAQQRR
T7 sequence (O00329 whole entry): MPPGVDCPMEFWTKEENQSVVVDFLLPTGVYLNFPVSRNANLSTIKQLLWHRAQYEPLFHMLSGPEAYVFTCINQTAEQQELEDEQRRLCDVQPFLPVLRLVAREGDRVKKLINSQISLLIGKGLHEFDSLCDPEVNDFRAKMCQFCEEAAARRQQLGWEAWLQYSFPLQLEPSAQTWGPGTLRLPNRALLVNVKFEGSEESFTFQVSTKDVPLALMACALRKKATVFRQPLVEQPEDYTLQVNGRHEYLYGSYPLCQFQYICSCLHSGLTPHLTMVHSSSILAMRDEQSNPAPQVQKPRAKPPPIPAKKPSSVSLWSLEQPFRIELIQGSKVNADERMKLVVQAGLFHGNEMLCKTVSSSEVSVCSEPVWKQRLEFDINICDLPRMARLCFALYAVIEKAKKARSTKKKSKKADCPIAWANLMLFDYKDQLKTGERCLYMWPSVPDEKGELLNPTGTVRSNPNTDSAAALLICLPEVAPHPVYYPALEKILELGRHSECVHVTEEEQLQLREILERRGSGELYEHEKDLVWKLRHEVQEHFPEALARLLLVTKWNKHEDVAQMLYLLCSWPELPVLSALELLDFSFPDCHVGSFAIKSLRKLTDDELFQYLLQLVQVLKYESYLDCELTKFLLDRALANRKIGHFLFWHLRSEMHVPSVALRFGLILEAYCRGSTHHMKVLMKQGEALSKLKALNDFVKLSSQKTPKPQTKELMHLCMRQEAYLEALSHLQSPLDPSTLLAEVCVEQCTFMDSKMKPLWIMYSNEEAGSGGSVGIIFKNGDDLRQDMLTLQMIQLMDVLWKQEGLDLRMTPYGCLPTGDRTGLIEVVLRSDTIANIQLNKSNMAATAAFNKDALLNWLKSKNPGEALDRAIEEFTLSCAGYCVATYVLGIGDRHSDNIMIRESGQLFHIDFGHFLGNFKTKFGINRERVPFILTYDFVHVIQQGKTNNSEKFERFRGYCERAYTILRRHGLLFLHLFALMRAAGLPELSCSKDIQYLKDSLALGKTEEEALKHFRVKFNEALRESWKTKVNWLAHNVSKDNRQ
T7 sequence (P27986 whole entry partner): as the sequence (P27986 whole entry partner) above
T5 sequence (Q8TCG2 whole entry): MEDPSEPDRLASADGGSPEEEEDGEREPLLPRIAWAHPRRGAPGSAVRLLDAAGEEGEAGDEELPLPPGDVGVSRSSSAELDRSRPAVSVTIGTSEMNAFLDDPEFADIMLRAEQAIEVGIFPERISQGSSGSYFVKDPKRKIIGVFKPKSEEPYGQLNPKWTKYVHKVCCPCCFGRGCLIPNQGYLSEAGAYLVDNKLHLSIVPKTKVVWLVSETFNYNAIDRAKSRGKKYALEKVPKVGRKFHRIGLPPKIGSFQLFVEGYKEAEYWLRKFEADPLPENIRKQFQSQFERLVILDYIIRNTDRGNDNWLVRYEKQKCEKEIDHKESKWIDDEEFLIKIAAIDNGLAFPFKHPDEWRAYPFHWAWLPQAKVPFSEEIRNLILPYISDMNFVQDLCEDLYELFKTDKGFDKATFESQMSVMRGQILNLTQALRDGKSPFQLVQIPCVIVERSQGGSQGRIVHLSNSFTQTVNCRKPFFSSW
T8 sequence (Q99755 whole entry): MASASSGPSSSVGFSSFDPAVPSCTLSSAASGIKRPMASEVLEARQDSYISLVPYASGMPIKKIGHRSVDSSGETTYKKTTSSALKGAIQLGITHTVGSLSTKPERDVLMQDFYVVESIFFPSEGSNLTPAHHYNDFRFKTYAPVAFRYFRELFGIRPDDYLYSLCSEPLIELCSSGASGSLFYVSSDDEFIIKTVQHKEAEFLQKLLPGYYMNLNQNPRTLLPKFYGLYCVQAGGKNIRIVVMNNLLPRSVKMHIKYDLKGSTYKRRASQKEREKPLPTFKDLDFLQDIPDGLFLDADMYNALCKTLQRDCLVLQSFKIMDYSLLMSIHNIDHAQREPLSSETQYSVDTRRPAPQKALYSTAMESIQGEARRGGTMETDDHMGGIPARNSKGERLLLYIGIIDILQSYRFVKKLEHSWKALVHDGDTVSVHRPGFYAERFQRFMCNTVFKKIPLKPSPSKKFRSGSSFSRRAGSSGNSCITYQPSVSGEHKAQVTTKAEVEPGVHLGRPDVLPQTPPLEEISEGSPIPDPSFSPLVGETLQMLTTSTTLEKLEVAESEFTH
T1 sequence (P07333 20-972): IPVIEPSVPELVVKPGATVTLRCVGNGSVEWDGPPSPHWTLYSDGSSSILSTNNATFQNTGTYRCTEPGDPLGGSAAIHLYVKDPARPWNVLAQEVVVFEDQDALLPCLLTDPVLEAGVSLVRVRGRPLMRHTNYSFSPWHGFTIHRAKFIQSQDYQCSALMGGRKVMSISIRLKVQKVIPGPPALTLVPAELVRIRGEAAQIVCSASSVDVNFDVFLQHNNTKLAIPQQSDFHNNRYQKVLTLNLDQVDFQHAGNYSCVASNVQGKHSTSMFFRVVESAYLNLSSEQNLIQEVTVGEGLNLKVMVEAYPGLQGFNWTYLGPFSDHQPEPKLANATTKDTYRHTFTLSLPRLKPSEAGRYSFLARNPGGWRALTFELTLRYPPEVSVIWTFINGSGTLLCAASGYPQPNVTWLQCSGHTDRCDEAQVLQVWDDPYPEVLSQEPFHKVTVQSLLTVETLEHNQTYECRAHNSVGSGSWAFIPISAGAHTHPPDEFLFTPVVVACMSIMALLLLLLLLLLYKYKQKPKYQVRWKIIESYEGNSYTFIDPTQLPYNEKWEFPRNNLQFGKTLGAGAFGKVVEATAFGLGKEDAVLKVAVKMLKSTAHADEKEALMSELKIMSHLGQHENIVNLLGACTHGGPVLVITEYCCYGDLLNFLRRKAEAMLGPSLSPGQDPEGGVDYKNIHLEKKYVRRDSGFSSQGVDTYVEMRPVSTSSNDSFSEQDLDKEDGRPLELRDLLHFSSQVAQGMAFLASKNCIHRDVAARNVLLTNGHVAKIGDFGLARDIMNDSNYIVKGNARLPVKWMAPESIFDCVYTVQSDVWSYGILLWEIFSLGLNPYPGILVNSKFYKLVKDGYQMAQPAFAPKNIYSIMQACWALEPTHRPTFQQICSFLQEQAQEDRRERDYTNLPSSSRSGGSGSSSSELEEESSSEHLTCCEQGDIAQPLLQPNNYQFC

| SMILES | inhibition at 10 µM [1, 11] [%] | inhibition at 10 µM [2, 12] [%] | inhibition at 10 µM [3, 13] [%] | inhibition at 10 µM [4, 14] [%] | inhibition at 10 µM [5, 15] [%] | inhibition at 10 µM [6, 16] [%] | inhibition at 10 µM [7, 17] [%] | inhibition at 10 µM [8, 18] [%] | further results |
| --- | --- | --- | --- | --- | --- | --- | --- | --- | --- |
| COc1ccc2c(c1OC)c(=O)n1c3ccc(O)cc3c3ccnc2c31 [MW01, 5-Hydroxy-10,11-dimethoxy-9H-benzo[c]indolo[3,2,1-ij][1,5]naphthyridin-9-one] |  |  |  |  |  |  |  |  | inhibition at 1 µM [1, 9]: 36%; inhibition at 10 µM [1, 10]: 51%; inhibition at 1 µM [2, 9]: 61%; inhibition at 10 µM [2, 10]: 86%; inhibition at 1 µM [3, 9]: 77%; inhibition at 10 µM [3, 10]: 83%; inhibition at 1 µM [4, 9]: 60%; inhibition at 10 µM [4, 10]: 73%; inhibition at 1 µM [5, 9]: 3%; inhibition at 10 µM [5, 10]: 20%; inhibition at 1 µM [6, 9]: 30%; inhibition at 10 µM [6, 10]: 67%; inhibition at 1 µM [7, 9]: 79%; inhibition at 10 µM [7, 10]: 89%; inhibition at 1 µM [8, 9]: 25%; inhibition at 10 µM [8, 10]: 43% |
| COc1ccc2c(c1)c1ccnc3c4nc(OC)ccc4c(=O)n2c13 [MW01-E6, 5,15-dimethoxy-1,11,14-triazapentacyclo[10.7.1,0^2,7.0^8,^20.0^13,^18]icosa-2(7),3,5,8(20),9,11,13(18),14,16-nonaen-19-one] | 33 | 31 | 29 | 57 | 11 | 13 | 34 | 20 |  |
| O=c1c2cc(O)ccc2c2nccc3c4cc(O)ccc4n1c32 [MW01-E10, 5,16-dihydroxy-1,11-diazapentacyclo[10.7.1.0^2,^7.0^8,^20.0^13,^18]icosa-2(7),3,5,8(20),9,11,13(18),14,16-nonaen-19-one] | 61 | 27 | 80 | 92 | 22 | 34 | 87 | 5 |  |
| COc1ccc2c(c1)c1ccnc3c4ccnc(OC)c4c(=O)n2c13 [MW01-E14, 5,17-dimethoxy-1,11,16-triazapentacyclo[10.7.1.0^2,^7.0^8,^20.0^13,^18]icosa-2(7),3,5,8(20),9,11,13(18),14,16-nonaen-19-one] | 18 | 12 | 24 | 12 | 21 | 26 | 84 | 11 |  |
| O=c1c2cnccc2c2nccc3c4cc(O)ccc4n1c32 [MW01-E18, 5-hydroxy-1,11,16-triazapentacyclo[10.7.1.0^2,^7.0^8,^20.0^13,^18]icosa-2(7),3,5,8(20),9,11,13(18),14,16-nonaen-19-one] | 57 | 65 | 88 | 85 | 24 | 62 | 77 | 28 |  |
| COc1ccc2cc3c(N)nn(C(=O)c4cccc(N(C)C)c4)c3nc2c1 [MW05, (3-Amino-7-methoxypyrazolo[3,4-b]quinolin-1-yl)-[3-(dimethylamino)phenyl]methanone] |  |  |  |  |  |  |  |  | inhibition at 1 µM [1, 9]: 5%; inhibition at 10 µM [1, 10]: -6%; inhibition at 1 µM [2, 9]: 2%; inhibition at 10 µM [2, 10]: 6%; inhibition at 1 µM [3, 9]: 4%; inhibition at 10 µM [3, 10]: 20%; inhibition at 1 µM [4, 9]: 20%; inhibition at 10 µM [4, 10]: 9%; inhibition at 1 µM [5, 9]: 9%; inhibition at 10 µM [5, 10]: 0%; inhibition at 1 µM [6, 9]: 21%; inhibition at 10 µM [6, 10]: 67%; inhibition at 1 µM [7, 9]: 40%; inhibition at 10 µM [7, 10]: 77%; inhibition at 1 µM [8, 9]: -6%; inhibition at 10 µM [8, 10]: 5% |
| COc1ccc2nc3c(cc2c1)c(N)nn3C(=O)c1cccc(N(C)C)c1 [MW05-E2, 1-[3-(dimethylamino)benzoyl]-6-methoxy-1H-pyrazolo[3,4-b]quinolin-3-amine] | 20 | 17 | 36 | 29 | 8 | 1 | 28 | -9 |  |
